Legend:
ICR mice [1] = test: Mouse tail-hanging experiment; assay type: in vivo; details: 16.7 mg/kg, fed into the stomach 2 times per day for 7 days; 1 hour after last administration; last 5 of 6 minutes
Protocol: Experiment 1: “Mouse Tail-Hanging” Experiment Experimental animal: ICR mice Experimental pharmaceuticals: The pharmaceutical of the Embodiment 3 of the present invention is provided by Beijing Wonner Biotech Ltd. Co., the depression-relieving pill is the product of Zhengzhou Yumi Medicines Co. Ltd., and Paroxitine (Paxil) is the product of Zhong Mei Tianjin Smith Kline pharmaceuticals Co. Ltd. I. Group division: 1. Large dose of the Embodiment 3 medicine of the present invention (188.5 mg/kg), 2. middle dose of the Embodiment 3 medicine of the present invention (94.25 mg/kg), 3. small dose of the Embodiment 3 medicine of the present invention (47.125 mg/kg), 4. depression-reliving pill (650 mg/kg), 5. Paroxitine (16.7 mg/kg), and 6. physiological saline. (Ten (10) mice are in each group.) II. Administration of drug: The abovementioned pharmaceutical water solutions are fed into the stomach according to 0.2 ml/10 g body weight, 2 times per day for a total of 7 days. After 1 hour of the last administration of drug, the mouse tail-hanging experiment is proceeded. III. […] The time of non-movement of the mouse for the last 5 minutes is recorded. The variance analysis calculation and the p-value compared with the control of the experimental result are calculated by using SPSS 11.5 analytic software.

ICR mice [2] = test: Body temperature decrease experiment induced by resetpine; assay type: in vivo; details: 16.7 mg/kg, 2 times per day for 7 days
Excerpt: Experiment 2: Body Temperature Decrease Experiment Induced by Resetpine
Experimental animal: ICR mice
Experimental pharmaceuticals: The pharmaceutical of the Embodiment 3 of the present invention is provided by Beijing Wonner Biotech Ltd. Co., the depression-relieving pill is the product of Zhengzhou Yumi Medicines Co. Ltd., and Paroxitine (Paxil) is the product of Zhong Mei Tianjin Smith Kline pharmaceuticals Co. Ltd.
I. Group division: 1. Large dose of the Embodiment 3 medicine of the present invention (188.5 mg/kg), 2. middle dose of the Embodiment 3 medicine of the present invention (94.25 mg/kg), 3. small dose of the Embodiment 3 medicine of the present invention (47.125 mg/kg), 4. depression-reliving pill (650 mg/kg), 5. Paroxitine (16.7 mg/kg), and 6. physiological saline. (Ten (10) mice are in each group.)
II. Administration of drug: the abovementioned pharmaceutical water solutions are fed into the stomach according to 0.2 ml/10 g body weight, 2 times per day for a total of 7 days.
III. After the last administration of drug, the anal temperature (abbreviated as anal temp.) is determined, and then 2 mg resetpine per kg of the body weight is taken by intraperitoneal injection. After injecting the resetpine for 2, 3, 4, 5, 6 and 7 hours respectively, the anal temperature of the mice are determined.
The variance analysis calculation and the p-value compared with the control of the experimental result are calculated by using SPSS 11.5 analytic software.

Fc1ccc([C@@H]2CCNC[C@H]2COc2ccc3c(c2)OCO3)cc1 [Paroxitine]
Time of non-movement (ICR mice [1]): 54.98 ± 46.92 s | Decreased anal temp. for 2 hr (ICR mice [2]; 2 hr after resetpine 2 mg/kg i.p.): 1.29 ± 0.47 °C | Decreased anal temp. for 3 hr (ICR mice [2]; 3 hr after resetpine 2 mg/kg i.p.): 1.08 ± 0.35 °C | Decreased anal temp. for 4 hr (ICR mice [2]; 4 hr after resetpine 2 mg/kg i.p.): 1.55 ± 0.64 °C | Decreased anal temp. for 5 hr (ICR mice [2]; 5 hr after resetpine 2 mg/kg i.p.): 1.44 ± 0.32 °C | Decreased anal temp. for 6 hr (ICR mice [2]; 6 hr after resetpine 2 mg/kg i.p.): 2.51 ± 0.47 °C | Decreased anal temp. for 7 hr (ICR mice [2]; 7 hr after resetpine 2 mg/kg i.p.): 2.76 ± 0.59 °C
